Source: US8247211B2, “Glycopeptide antibiotics” (American Cyanamid Company, priority 2001, dated 2012)

What was measured:
Test in all cases: In vitro antibacterial evaluation: minimum inhibitory concentration (MIC), broth dilution method
Format in all cases: cell-based
Conditions in all cases: 18 hours at 35° C.
Staphylococcus sp. = system: Staphylococcus sp.
Procedure, shortened: (§1)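 Values are minimum inhibitory concentrations, meaning the smallest antibiotic concentration that stops growth of the organism. They come from broth dilution in Muller-Hinton II […] per NCCLS guidance (M7-A2), using 5×10^5 CFU/mL and concentrations from 64 to 0.06 μg/mL.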

Escherichia coli = system: Escherichia coli
Procedure, shortened: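 An MIC is reported for each organism as the least concentration giving inhibition, using broth dilution over 64-0.06 μg/mL with a 5×10^5 CFU/mL inoculum.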

Enterococcus sp. = system: Enterococcus sp.
Procedure, shortened: as §1

Streptococcus sp. = system: Streptococcus sp.
Procedure, shortened: as §1

α-O-[(Heptylamino)carbonyl]-cyclo(glycyl-β-methylphenylalanyl-O-(4-O-hexopyranosylhexopyranosyl)tyrosyl-3-(2-iminoimidazolidin-4-yl)seryl-3-(3-hexopyranosyl-2-iminoimidazolidin-4-yl)serylseryl] [Example 253]
>64 µg/mL: MIC Coagulase Negative Staphylococcus (GC 4551) (Staphylococcus sp.; Coagulase Negative Staphylococcus (GC 4551)) | MIC Staphylococcus aureus (ATCC 29213) (Staphylococcus sp.; Staphylococcus aureus (ATCC 29213)) | MIC Staphylococcus aureus (GC 1131) (Staphylococcus sp.; Staphylococcus aureus (GC 1131)) | MIC Staphylococcus aureus (GC 3051) (Staphylococcus sp.; Staphylococcus aureus (GC 3051)) | MIC Staphylococcus aureus (GC 3053) (Staphylococcus sp.; Staphylococcus aureus (GC 3053)) | MIC Staphylococcus aureus (GC 4542) (Staphylococcus sp.; Staphylococcus aureus (GC 4542)) | MIC Staphylococcus aureus (GC 4544) (Staphylococcus sp.; Staphylococcus aureus (GC 4544)) | MIC Staphylococcus aureus (ATCC 29213) (Staphylococcus sp.; broth dilution, strain ATCC 29213) | MIC Staphylococcus aureus (GC 1131) (Staphylococcus sp.; broth dilution, strain GC 1131) | MIC Staphylococcus aureus (GC 3051) (Staphylococcus sp.; broth dilution, strain GC 3051) | MIC Staphylococcus aureus (GC 3053) (Staphylococcus sp.; broth dilution, strain GC 3053) | MIC Staphylococcus aureus (GC 4542) (Staphylococcus sp.; broth dilution, strain GC 4542) | MIC Staphylococcus aureus (GC 4544) (Staphylococcus sp.; broth dilution, strain GC 4544) | MIC Coagulase Negative Staphylococcus (GC 4551) (Staphylococcus sp.; broth dilution, strain GC 4551) | MIC Escherichia coli (ATCC 25922) (Escherichia coli; Escherichia coli (ATCC 25922)) | MIC Escherichia coli (GC 4559) (Escherichia coli; Escherichia coli (GC 4559)) | MIC Enterococcus faecalis (ATCC 29212) (Enterococcus sp.; Enterococcus faecalis (ATCC 29212)) | MIC Enterococcus faecalis (GC 2242) (Enterococcus sp.; Enterococcus faecalis (GC 2242)) | MIC Enterococcus faecalis (GC 2691) (Enterococcus sp.; Enterococcus faecalis (GC 2691)) | MIC Enterococcus faecalis (GC 3059) (Enterococcus sp.; Enterococcus faecalis (GC 3059)) | MIC Enterococcus faecalis (GC 4552) (Enterococcus sp.; Enterococcus faecalis (GC 4552)) | MIC Enterococcus faecalis (GC 4553) (Enterococcus sp.; Enterococcus faecalis (GC 4553)) | MIC Enterococcus faecalis (GC 4554) (Enterococcus sp.; Enterococcus faecalis (GC 4554)) | MIC Enterococcus faecalis (GC 6189) (Enterococcus sp.; Enterococcus faecalis (GC 6189)) | MIC Enterococcus faecium (GC 2243) (Enterococcus sp.; Enterococcus faecium (GC 2243)) | MIC Enterococcus faecium (GC 4556) (Enterococcus sp.; Enterococcus faecium (GC 4556)) | MIC Enterococcus faecalis (ATCC 29212) (Enterococcus sp.; broth dilution, strain ATCC 29212) | MIC Enterococcus faecalis (GC 2242) (Enterococcus sp.; broth dilution, strain GC 2242) | MIC Enterococcus faecium (GC 2243) (Enterococcus sp.; broth dilution, strain GC 2243) | MIC Enterococcus faecalis (GC 2691) (Enterococcus sp.; broth dilution, strain GC 2691) | MIC Enterococcus faecalis (GC 3059) (Enterococcus sp.; broth dilution, strain GC 3059) | MIC Enterococcus faecalis (GC 4552) (Enterococcus sp.; broth dilution, strain GC 4552) | MIC Enterococcus faecalis (GC 4553) (Enterococcus sp.; broth dilution, strain GC 4553) | MIC Enterococcus faecalis (GC 4554) (Enterococcus sp.; broth dilution, strain GC 4554) | MIC Enterococcus faecium (GC 4556) (Enterococcus sp.; broth dilution, strain GC 4556) | MIC Enterococcus faecalis (GC 6189) (Enterococcus sp.; broth dilution, strain GC 6189)
64 µg/mL: MIC Coagulase Negative Staphylococcus (GC 4547) (Staphylococcus sp.; Coagulase Negative Staphylococcus (GC 4547)) | MIC Coagulase Negative Staphylococcus (GC 4548) (Staphylococcus sp.; Coagulase Negative Staphylococcus (GC 4548)) | MIC Coagulase Negative Staphylococcus (GC 4549) (Staphylococcus sp.; Coagulase Negative Staphylococcus (GC 4549)) | MIC Staphylococcus aureus (GC 4541) (Staphylococcus sp.; Staphylococcus aureus (GC 4541)) | MIC Staphylococcus aureus (GC 4545) (Staphylococcus sp.; Staphylococcus aureus (GC 4545)) | MIC Staphylococcus aureus-SMITH (GC 4543) (Staphylococcus sp.; Staphylococcus aureus-SMITH (GC 4543)) | MIC Staphylococcus haemolyticus (GC 4546) (Staphylococcus sp.; Staphylococcus haemolyticus (GC 4546)) | MIC Staphylococcus aureus (GC 4541) (Staphylococcus sp.; broth dilution, strain GC 4541) | MIC Staphylococcus aureus-SMITH (GC 4543) (Staphylococcus sp.; broth dilution, strain GC 4543) | MIC Staphylococcus aureus (GC 4545) (Staphylococcus sp.; broth dilution, strain GC 4545) | MIC Staphylococcus haemolyticus (GC 4546) (Staphylococcus sp.; broth dilution, strain GC 4546) | MIC Coagulase Negative Staphylococcus (GC 4547) (Staphylococcus sp.; broth dilution, strain GC 4547) | MIC Coagulase Negative Staphylococcus (GC 4548) (Staphylococcus sp.; broth dilution, strain GC 4548) | MIC Coagulase Negative Staphylococcus (GC 4549) (Staphylococcus sp.; broth dilution, strain GC 4549) | MIC Enterococcus avium (GC 4558) (Enterococcus sp.; Enterococcus avium (GC 4558)) | MIC Enterococcus avium (GC 4558) (Enterococcus sp.; broth dilution, strain GC 4558)
2 µg/mL: MIC Escherichia coli (GC 4560) (Escherichia coli; Escherichia coli (GC 4560))
8 µg/mL: MIC Streptococcus pneumoniae (GC 1894) (Streptococcus sp.; Streptococcus pneumoniae (GC 1894)) | MIC Streptococcus pneumoniae (GC 1894) (Streptococcus sp.; broth dilution, strain GC 1894)
32 µg/mL: MIC Coagulase Negative Staphylococcus (GC 6257) (Staphylococcus sp.; Coagulase Negative Staphylococcus (GC 6257)) | MIC Coagulase Negative Staphylococcus (GC 6257) (Staphylococcus sp.; broth dilution, strain GC 6257) | MIC Enterococcus faecium (GC 4557) (Enterococcus sp.; Enterococcus faecium (GC 4557)) | MIC Enterococcus faecium (GC 4557) (Enterococcus sp.; broth dilution, strain GC 4557) | MIC Streptococcus agalactiae (GC 4564) (Streptococcus sp.; Streptococcus agalactiae (GC 4564)) | MIC Streptococcus pyogenes (GC 4563) (Streptococcus sp.; Streptococcus pyogenes (GC 4563)) | MIC Streptococcus pyogenes (GC 4563) (Streptococcus sp.; broth dilution, strain GC 4563) | MIC Streptococcus agalactiae (GC 4564) (Streptococcus sp.; broth dilution, strain GC 4564)
16 µg/mL: MIC Streptococcus pneumoniae (ATCC 6301) (Streptococcus sp.; Streptococcus pneumoniae (ATCC 6301)) | MIC Streptococcus pneumoniae (GC 4565) (Streptococcus sp.; Streptococcus pneumoniae (GC 4565)) | MIC Streptococcus pneumoniae (ATCC 6301) (Streptococcus sp.; broth dilution, strain ATCC 6301) | MIC Streptococcus pneumoniae (GC 4565) (Streptococcus sp.; broth dilution, strain GC 4565)
